Measured values taken from ChEMBL document CHEMBL1201862, “PubChem BioAssay data set” (2004).
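48-hour exposure; five concentrations; linearly interpolated endpoints. GI50 = concentration required for 50% inhibition of growth.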 Active and inactive are the calls of the source. Cut-off read from the data, not from the text of the source: active = GI50 up to about 1.1 µM and inactive = higher.

Columns and labels:
Experiment in all cases: inhibition of tumour cell growth, NCI panel, 48 h
786-0 = system: 786-0
A549 = system: A549
ACHN = system: ACHN
CAKI-1 = system: CAKI-1
CCRF-CEM = system: CCRF-CEM
COLO 205 = system: COLO 205
DLD-1 = system: DLD-1
DMS-114 = system: DMS-114
DMS-273 = system: DMS-273
EKVX = system: EKVX
HCC 2998 = system: HCC 2998
HCT-116 = system: HCT-116
HCT-15 = system: HCT-15
HL-60 = system: HL-60
HOP-18 = system: HOP-18
HOP-62 = system: HOP-62
HOP-92 = system: HOP-92
HT-29 = system: HT-29
IGROV-1 = system: IGROV-1
K562 = system: K562
KM-20L2 = system: KM-20L2
KM12 = system: KM12
LOX IMVI = system: LOX IMVI
LXFL 529 = system: LXFL 529
M14 = system: M14
M19-MEL = system: M19-MEL
MOLT-4 = system: MOLT-4
Malme-3M = system: Malme-3M
NCI-H226 = system: NCI-H226
NCI-H23 = system: NCI-H23
NCI-H460 = system: NCI-H460
NCI-H522 = system: NCI-H522
OVCAR-3 = system: OVCAR-3
OVCAR-4 = system: OVCAR-4
OVCAR-5 = system: OVCAR-5
OVCAR-8 = system: OVCAR-8
RPMI-8226 = system: RPMI-8226
RXF 393 = system: RXF 393
SF-268 = system: SF-268
SF-295 = system: SF-295
SF-539 = system: SF-539
SK-MEL-28 = system: SK-MEL-28
SK-MEL-2 = system: SK-MEL-2
SK-MEL-5 = system: SK-MEL-5
SK-OV-3 = system: SK-OV-3
SN12C = system: SN12C
SNB-19 = system: SNB-19
SNB-75 = system: SNB-75
SNB-78 = system: SNB-78
SR = system: SR
SW-620 = system: SW-620
TK-10 = system: TK-10
U-251 = system: U-251
UACC-257 = system: UACC-257
UACC-62 = system: UACC-62
UO-31 = system: UO-31
XF498 = system: XF498

Measured: GI50

COC(=O)CC[C@@H](NC(=O)C(C)NC(=O)COC1C(O)C(COC(=O)CCCCCCCCCCNC(=O)c2ccc([N+](=O)[O-])c3[nH]c4cc(Br)ccc4c(=O)c23)OC(OCc2ccccc2)C1NC(C)=O)C(N)=O (some centres not stated)
inactive: 786-0 > 100 µM | A549 > 100 µM | ACHN > 100 µM | CAKI-1 > 100 µM | CCRF-CEM > 100 µM | COLO 205 96.6 µM | DLD-1 35.4 µM | DMS-114 35.6 µM | DMS-273 > 100 µM | EKVX 17.3 µM | HCC 2998 22.5 µM | HCT-116 > 100 µM | HL-60 23 µM | HOP-18 35.7 µM | HOP-62 83.8 µM | HOP-92 37.1 µM | HT-29 > 100 µM | IGROV-1 19.5 µM | K562 44.4 µM | KM-20L2 > 100 µM | KM12 > 100 µM | LOX IMVI 44.2 µM | LXFL 529 26.2 µM | M14 61.4 µM | M19-MEL 50.8 µM | MOLT-4 70.3 µM | Malme-3M > 100 µM | NCI-H226 25.1 µM | NCI-H23 > 100 µM | NCI-H460 57.3 µM | NCI-H522 32.7 µM | OVCAR-3 25.7 µM | OVCAR-4 > 100 µM | OVCAR-5 37.3 µM | OVCAR-8 > 100 µM | RPMI-8226 39.7 µM | RXF 393 56.6 µM | SF-268 57.4 µM | SF-295 > 100 µM | SF-539 > 100 µM | SK-MEL-28 > 100 µM | SK-MEL-2 95.1 µM | SK-MEL-5 68.7 µM | SK-OV-3 > 100 µM | SN12C > 100 µM | SNB-19 94 µM | SNB-75 > 100 µM | SNB-78 71.8 µM | SR 42.6 µM | SW-620 > 100 µM | TK-10 > 100 µM | U-251 > 100 µM | UACC-257 > 100 µM | UACC-62 65.8 µM | UO-31 > 100 µM | XF498 > 100 µM
> 100 µM: HCT-15
